This note sets out measurements from US11464770B2, “Anticancer pharmaceutical composition” (NATIONAL CANCER CENTER, priority 2016, dated 2022).

Each structure is given as a SMILES string. Read-outs that look alike come from different tables or passages of the source.

One assay deals with melanoma cell lines. Put plainly: Cell based assay, cell viability (CellTiter-Glo), melanoma cell lines. The conditions noted are these: Homo sapiens; LOX-IMVI cell line. An outline of the steps: (§1)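 Following a 24 h pre-culture in plates, cells receive test compound (final 0 to 2 μM) for 72 hours. Luminescent quantitation of cellular ATP gives viability.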
(ATP-based viability assays read luminescence as a measure of living cells.)

A further assay deals with brain cancer cell lines. Briefly: Cell based assay, cell viability (CellTiter-Glo), brain cancer cell lines. Particulars: Homo sapiens.
Assay [1] has as its system lung cancer cell lines (e.g. NCI-H23, NCI-H1229). Put plainly: Cell based assay, cell viability (CellTiter-Glo), lung cancer cell lines. The conditions noted are these: Homo sapiens. Summed up:
as §1

The mark [2] stands for this setting: U138-MG, U-138 MG cell line, read-out: IC50, Brain cancer cell line U-138 MG.
The mark [3] stands for this setting: T98G cell line, read-out: IC50, Brain cancer cell line T98G.
Where [4] appears, read: U-251 MG cell line, read-out: IC50, Brain cancer cell line U-251 MG.
[5] abbreviates: A549 cells, 72 hours treatment, CellTiter-Glo, read-out: IC50, lung cancer cell line A549.
Where [6] appears, read: DMS 114 cells, 72 hours treatment, CellTiter-Glo, read-out: IC50, lung cancer cell line DMS 114.
The mark [7] stands for this setting: MRC-5 cells, 72 hours treatment, CellTiter-Glo, read-out: IC50.
Setting [8] is: NCI-H23 cells, 72 hours treatment, CellTiter-Glo, read-out: IC50, lung cancer cell line NCI-H23.
The mark [9] stands for this setting: NCI-H460 cells, 72 hours treatment, CellTiter-Glo, read-out: IC50, lung cancer cell line NCI-H460.
Setting [10] is: NCI-H522 cells, 72 hours treatment, CellTiter-Glo, read-out: IC50, lung cancer cell line NCI-H522.
Setting [11] is: NCI-H1299 cells, 72 hours treatment, CellTiter-Glo, read-out: IC50, lung cancer cell line NCI-H1299.
Setting [12] is: NCI-H1437 cells, 72 hours treatment, CellTiter-Glo, read-out: IC50, lung cancer cell line NCI-H1437.
[13] abbreviates: Lung cancer cell line A549, 72 hours, cell viability (CellTiter-Glo), read-out: IC50, A549.
Setting [14] is: Lung cancer cell line DMS 114, 72 hours, cell viability (CellTiter-Glo), read-out: IC50, DMS 114.
[15] abbreviates: Lung cancer cell line NCI-H23, 72 hours, cell viability (CellTiter-Glo), read-out: IC50, NCI-H23.
[16] abbreviates: Lung cancer cell line NCI-H460, 72 hours, cell viability (CellTiter-Glo), read-out: IC50, NCI-H460.
The mark [17] stands for this setting: Lung cancer cell line NCI-H522, 72 hours, cell viability (CellTiter-Glo), read-out: IC50, NCI-H522.
[18] abbreviates: Lung cancer cell line NCI-H1299, 72 hours, cell viability (CellTiter-Glo), read-out: IC50, NCI-H1299.
Setting [19] is: Lung cancer cell line NCI-H1437, 72 hours, cell viability (CellTiter-Glo), read-out: IC50, NCI-H1437.
The mark [20] stands for this setting: MRC-5 (listed under Lung cancer cell line), 72 hours, cell viability (CellTiter-Glo), read-out: IC50, MRC-5.

With `Cc1cc(C[S+]([O-])c2[nH]c3c(Cl)ccc(Cl)c3c(=O)c2C(=O)C2CC2)no1` (stereo not drawn) [Compound 97, 5,8-dichloro-3-(cyclopropanecarbonyl)-2-(((5-methylisoxazol-3-yl)methyl)sulfinyl)quinolin-4(1H)-one], the IC50 in the assay on melanoma cell lines is 1030 nM; in the assay with brain cancer cell lines (setting [2]), 1690 nM; in the assay with brain cancer cell lines (setting [3]), > 10000 nM; in the assay on brain cancer cell lines (setting [4]), 1120 nM; in assay [1] (setting [5]), > 2000 nM; in assay [1] (setting [6]), > 2000 nM. Also, the IC50 in assay [1] (setting [7]) is 1430 nM; in assay [1] (setting [8]) it was 1090 nM; in assay [1] (setting [9]) it was 1460 nM; in assay [1] (setting [10]) it was 1320 nM; in assay [1] (setting [11]) it was 1480 nM; in assay [1] (setting [12]) it was > 10000 nM.
As to `CC(=O)c1c([S+]([O-])Cc2ccc(C#N)s2)[nH]c2c(Br)ccc(Cl)c2c1=O` (stereo not drawn) [Compound 98, 5-(((3-acetyl-8-bromo-5-chloro-4-oxo-1,4-dihydroquinolin-2-yl)sulfinyl)methyl)thiophene-2-carbonitrile], the IC50 is 1340 nM with melanoma cell lines; > 2000 nM in the assay with brain cancer cell lines (setting [2]); > 10000 nM with brain cancer cell lines (setting [3]); 1250 nM with brain cancer cell lines (setting [4]); > 2000 nM in assay [1] (setting [5]); > 2000 nM in assay [1] (setting [6]). Moreover, the IC50 in assay [1] (setting [7]) was > 2000 nM; in assay [1] (setting [8]) it was 1640 nM; in assay [1] (setting [9]), 1680 nM; in assay [1] (setting [10]), > 2000 nM; in assay [1] (setting [11]) it was 1810 nM; in assay [1] (setting [12]) it was > 10000 nM.
Turning to `CC(=O)c1c([S+]([O-])Cc2ccc(-n3cccn3)nc2)[nH]c2c(Br)ccc(Cl)c2c1=O` (stereo not drawn) [Compound 99, 2-(((6-(1H-pyrazol-1-yl)pyridin-3-yl)methyl)sulfinyl)-3-acetyl-8-bromo-5-chloroquinolin-4(1H)-one], the IC50 with melanoma cell lines was 870 nM; in the assay on brain cancer cell lines (setting [2]), 1160 nM; in the assay on brain cancer cell lines (setting [3]), > 10000 nM; in the assay on brain cancer cell lines (setting [4]), 790 nM; in assay [1] (setting [13]), 1290 nM; in assay [1] (setting [14]), > 2000 nM. In addition, the IC50 in assay [1] (setting [15]) was 920 nM; in assay [1] (setting [16]), 1180 nM; in assay [1] (setting [17]) it was 1130 nM; in assay [1] (setting [18]), 1060 nM; in assay [1] (setting [19]), > 10000 nM; in assay [1] (setting [20]), 1130 nM.
Consider `CC(=O)c1c([S+]([O-])Cc2ccc(N)nc2)[nH]c2c(Br)ccc(Cl)c2c1=O` (stereo not drawn) [Compound 100, 3-acetyl-2-(((6-aminopyridin-3-yl)methyl)sulfinyl)-8-bromo-5-chloroquinolin-4(1H)-one], for which the IC50 in the assay on melanoma cell lines is > 2000 nM; with brain cancer cell lines (setting [2]), > 10000 nM; with brain cancer cell lines (setting [3]), > 10000 nM; in the assay on brain cancer cell lines (setting [4]), > 2000 nM; in assay [1] (setting [13]), > 2000 nM; in assay [1] (setting [14]) it was > 2000 nM. Moreover, the IC50 in assay [1] (setting [15]) was > 2000 nM; in assay [1] (setting [16]), > 2000 nM; in assay [1] (setting [17]), > 2000 nM; in assay [1] (setting [18]), > 2000 nM; in assay [1] (setting [19]), > 10000 nM; in assay [1] (setting [20]), > 2000 nM.
`O=C(c1c([S+]([O-])Cc2ccc(SC(F)(F)F)cc2)[nH]c2c(Br)ccc(Cl)c2c1=O)C1CC1` (stereo not drawn) [Compound 101, 8-bromo-5-chloro-3-(cyclopropanecarbonyl)-2-((4-((trifluoromethyl)thio)benzyl)sulfinyl)quinolin-4(1H)-one]: the IC50 in the assay on melanoma cell lines was > 2000 nM; with brain cancer cell lines (setting [2]) it was > 2000 nM; in the assay on brain cancer cell lines (setting [3]) it was > 10000 nM; with brain cancer cell lines (setting [4]) it was > 2000 nM; in assay [1] (setting [13]), > 2000 nM; in assay [1] (setting [14]) it was > 2000 nM. The IC50 in assay [1] (setting [15]) was 1330 nM; in assay [1] (setting [16]), > 2000 nM; in assay [1] (setting [17]), > 2000 nM; in assay [1] (setting [18]), > 2000 nM; in assay [1] (setting [19]), > 10000 nM; in assay [1] (setting [20]), > 2000 nM.
Regarding `CC(=O)c1c([S+]([O-])Cc2ccc(C(F)(F)F)nc2C)[nH]c2c(Br)ccc(Cl)c2c1=O` (stereo not drawn) [Compound 102, 3-acetyl-8-bromo-5-chloro-2-(((2-methyl-6-(trifluoromethyl)pyridin-3-yl)methyl)sulfinyl)quinolin-4(1H)-one], the IC50 is 860 nM with melanoma cell lines; 1240 nM in the assay on brain cancer cell lines (setting [2]); > 10000 nM with brain cancer cell lines (setting [3]); > 2000 nM in the assay with brain cancer cell lines (setting [4]); 1640 nM in assay [1] (setting [13]); > 2000 nM in assay [1] (setting [14]). The IC50 in assay [1] (setting [15]) is 1260 nM; in assay [1] (setting [16]), 1440 nM; in assay [1] (setting [17]), 1490 nM; in assay [1] (setting [18]), 1110 nM; in assay [1] (setting [19]), > 10000 nM; in assay [1] (setting [20]), 1430 nM.
As to `CC(=O)c1c([S+]([O-])Cc2ccc(NS(C)(=O)=O)cc2)[nH]c2c(Br)ccc(Cl)c2c1=O` (stereo not drawn) [Compound 103, N-(4-(((3-acetyl-8-bromo-5-chloro-4-oxo-1,4-dihydroquinolin-2-yl)sulfinyl)methyl)phenyl)methane-sulfonamide], the IC50 with melanoma cell lines is > 2000 nM; in the assay on brain cancer cell lines (setting [2]) it was > 2000 nM; with brain cancer cell lines (setting [3]) it was > 10000 nM; in the assay with brain cancer cell lines (setting [4]) it was > 2000 nM; in assay [1] (setting [13]), > 2000 nM; in assay [1] (setting [14]), > 2000 nM. Besides, the IC50 was > 2000 nM in assay [1] (setting [15]); > 2000 nM in assay [1] (setting [16]); > 2000 nM in assay [1] (setting [17]); > 2000 nM in assay [1] (setting [18]); > 10000 nM in assay [1] (setting [19]); > 2000 nM in assay [1] (setting [20]).
With `CC(=O)c1c([S+]([O-])Cc2ccc(Cl)nc2)[nH]c2c(Br)ccc(Cl)c2c1=O` (stereo not drawn) [Compound 104, 3-acetyl-8-bromo-5-chloro-2-(((6-chloropyridin-3-yl)methyl)sulfinyl)quinolin-4(1H)-one], the IC50 was 880 nM with melanoma cell lines; 1470 nM in the assay with brain cancer cell lines (setting [2]); > 10000 nM in the assay on brain cancer cell lines (setting [3]); > 2000 nM with brain cancer cell lines (setting [4]); 1680 nM in assay [1] (setting [13]); > 2000 nM in assay [1] (setting [14]). Moreover, the IC50 in assay [1] (setting [15]) is 1270 nM; in assay [1] (setting [16]) it was 1510 nM; in assay [1] (setting [17]) it was 1410 nM; in assay [1] (setting [18]), 1170 nM; in assay [1] (setting [19]), > 10000 nM; in assay [1] (setting [20]), 1620 nM.
Turning to `COCCNc1ccc(C[S+]([O-])c2[nH]c3c(Br)ccc(Cl)c3c(=O)c2C(C)=O)cn1` (stereo not drawn) [Compound 105, 3-acetyl-8-bromo-5-chloro-2-(((6-((2-methoxyethyl)amino)pyridin-3-yl)methyl)sulfinyl)quinolin-4(1H)-one], the IC50 in the assay on melanoma cell lines was > 2000 nM; in the assay with brain cancer cell lines (setting [2]) it was > 10000 nM; in the assay on brain cancer cell lines (setting [3]), > 10000 nM; in the assay on brain cancer cell lines (setting [4]), > 2000 nM; in assay [1] (setting [13]) it was > 2000 nM; in assay [1] (setting [14]) it was > 2000 nM. Besides, the IC50 is > 2000 nM in assay [1] (setting [15]); > 2000 nM in assay [1] (setting [16]); > 2000 nM in assay [1] (setting [17]); > 2000 nM in assay [1] (setting [18]); > 10000 nM in assay [1] (setting [19]); > 2000 nM in assay [1] (setting [20]).
`CC(=O)c1c([S+]([O-])Cc2nonc2C)[nH]c2c(Br)ccc(Cl)c2c1=O` (stereo not drawn) [Compound 106, 3-acetyl-8-bromo-5-chloro-2-(((4-methyl-1,2,5-oxadiazol-3-yl)methyl)sulfinyl)quinolin-4(1H)-one]: the IC50 in the assay with melanoma cell lines is > 2000 nM; with brain cancer cell lines (setting [2]), > 10000 nM; with brain cancer cell lines (setting [3]), > 10000 nM; in the assay on brain cancer cell lines (setting [4]), > 2000 nM; in assay [1] (setting [13]) it was > 2000 nM; in assay [1] (setting [14]), > 2000 nM. Also, the IC50 in assay [1] (setting [15]) was > 2000 nM; in assay [1] (setting [16]), > 2000 nM; in assay [1] (setting [17]), > 2000 nM; in assay [1] (setting [18]), > 2000 nM; in assay [1] (setting [19]) it was > 10000 nM; in assay [1] (setting [20]), > 2000 nM.
For the molecule `CC(=O)c1c([S+]([O-])Cc2cnc3[nH]ccc3c2)[nH]c2c(Br)ccc(Cl)c2c1=O` (stereo not drawn) [Compound 107, 2-(((1H-pyrrolo[2,3-b]pyridin-5-yl)methyl)sulfinyl)-3-acetyl-8-bromo-5-chloroquinolin-4(1H)-one], the concentration for half-maximal inhibition (IC50) in the assay with melanoma cell lines was > 2000 nM; with brain cancer cell lines (setting [2]), > 10000 nM; in the assay with brain cancer cell lines (setting [3]), > 10000 nM; in the assay on brain cancer cell lines (setting [4]), > 2000 nM; in assay [1] (setting [13]), > 2000 nM; in assay [1] (setting [14]) it was > 2000 nM. Also, the IC50 is > 2000 nM in assay [1] (setting [15]); > 2000 nM in assay [1] (setting [16]); > 2000 nM in assay [1] (setting [17]); > 2000 nM in assay [1] (setting [18]); > 10000 nM in assay [1] (setting [19]); > 2000 nM in assay [1] (setting [20]).

What is called IC50 is the point on the concentration scale where inhibition reaches its midpoint.
